Patent publication US7193079B1 (Board of Trustees of Michigan State University, priority 2003, dated 2007)
pIC50: −log10 of the molar value.

Columns and labels:
[1] = target: T1, PKCα (h) (Homo sapiens, UniProt P17252); assay: Upstate Kinase Profiler in vitro kinase assay, PKCα; assay type: biochemical; details: 10 μM ATP
T1 construct: purchased Upstate, UK (Kinase Profiler service)
Description: (§1) The potent inhibitory activity of the indoloazepines against checkpoint kinases Chk1 and Chk2 was determined. In vitro kinase Assay: Compound 2 was tested in vitro against the kinases indicated by Upstate, UK using a Kinase Profiler Assay according to the manufacturer's protocol. Briefly, in a final volume of 25 μl, the kinase was incubated with the desired buffer and the required polypeptide substrate, in presence of 10 mM magnesium acetate and γ-^33P-ATP (10 μM). After incubation for 40 minutes at room temperature, the reaction was stopped by the addition of 3% H3PO4 (5 μl). A 10 μl of the reaction was then spotted on a P30 filtermat and washed 3× in 75 mM H3PO4 and finally in methanol. Samples were then dried and signals counted on a scintillation counter. […] The results are shown in FIGS. 8 and 9 for CHK1 and CHK2.

[2] = target: T2, PKCβII (h) (Homo sapiens, UniProt P05771); assay: Upstate Kinase Profiler in vitro kinase assay, PKCβII; assay type: biochemical; details: 10 μM ATP
T2 construct: purchased Upstate, UK (Kinase Profiler service)
Description: as §1

[3] = target: T3, CHK2 (Homo sapiens, UniProt O96017); assay: Upstate Kinase Profiler in vitro kinase assay, CHK2; assay type: biochemical; details: 10 μM ATP
T3 construct: purchased Upstate, UK (Kinase Profiler service)
Description: as §1, with “In” for “The potent inhibitory activity of the indoloazepines against checkpoint kinases Chk1 and Chk2 was determined. In”

[4] = target: T4, MEK1 (h) (Homo sapiens, UniProt Q02750); assay: Upstate Kinase Profiler in vitro kinase assay, MEK1; assay type: biochemical; details: 10 μM ATP
T4 construct: purchased Upstate, UK (Kinase Profiler service)
Description: as §1

[5] = target: T5, CHK1 (Homo sapiens, UniProt O14757); assay: Upstate Kinase Profiler in vitro kinase assay, CHK1; assay type: biochemical; details: 10 μM ATP
T5 sequence (O14757 1-476): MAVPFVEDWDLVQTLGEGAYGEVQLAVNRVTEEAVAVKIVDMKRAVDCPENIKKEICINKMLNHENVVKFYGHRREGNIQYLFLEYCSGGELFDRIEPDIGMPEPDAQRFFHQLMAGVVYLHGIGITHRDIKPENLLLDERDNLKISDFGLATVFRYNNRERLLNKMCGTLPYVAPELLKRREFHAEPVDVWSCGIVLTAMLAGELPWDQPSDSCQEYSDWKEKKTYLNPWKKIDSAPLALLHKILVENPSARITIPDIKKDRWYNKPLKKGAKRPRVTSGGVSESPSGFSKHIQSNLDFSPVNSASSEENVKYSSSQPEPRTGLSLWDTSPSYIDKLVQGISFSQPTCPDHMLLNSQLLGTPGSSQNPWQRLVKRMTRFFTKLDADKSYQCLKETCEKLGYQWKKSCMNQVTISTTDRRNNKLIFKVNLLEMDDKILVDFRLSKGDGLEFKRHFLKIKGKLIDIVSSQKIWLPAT
Description: as §1, with “In” for “The potent inhibitory activity of the indoloazepines against checkpoint kinases Chk1 and Chk2 was determined. In”

[6] = test system: CEM leukemia cells; assay: Inhibition of cell growth in CEM leukemia cells (trypan blue counting); assay type: cell-based; details: 48 hour, means of two experiments, standard deviation in parentheses
Description: Cells were treated at different concentrations ranging from 10 ηM to 5 μM concentrations over a 48 hour time period.
CEM cells (CCRF-CEM; ATCC No. CCL-119, American Type Culture Collection, Manassas, Va.) were grown in RPMI-1640 Media (Gibco-BRL, Rockville, Md.) supplemented with 10% Fetal Bovine Serum, penicillin (614 r1 g/mL), streptomycin (10 μg/mL) and HEPES buffer, pH 7.2 at 37° C., 5% CO2. DMSO was used as the vector for all drugs and added in the control experiments. Cell cultures were then treated with 10 μM, 1 μM, 0.1 μM or 10 ηM of the drug in duplicate and allowed to incubate at 37° C., 5% CO2. Cells were stained with 4% trypan blue solution in PBS, and counted under the microscope (Thomas Scientific, Fisher Scientific) in duplicate. This was repeated for Oh, 2 h, 6 h, 12 h, 24 h, and 48 h. The data points obtained were then plotted and a point-to-point curve was drawn to determine the effect of the drug on the cells.

[7] = target: T6, CK1δ (h) (Homo sapiens, UniProt P48730); assay: Upstate Kinase Profiler in vitro kinase assay, CK1δ; assay type: biochemical; details: 10 μM ATP
T6 construct: purchased Upstate, UK (Kinase Profiler service)
Description: as §1

[8] = test system: TNF-α production; assay: Inhibition of TNF-α production measured by competitive EIA in LPS stimulated THP-1 cells; assay type: cell-based, human; details: for pIC50: EIA, 3 hr incubation, means of two experiments, standard deviation in parentheses
Description: (§2) Exposure of human Jurkat leukemia T-cells to phorbol myristate acetate (PMA/PHA) and THP-1 cells to lipopolysaccharide (LPS), activates NF-κB mediated gene transcription of several pro-inflammatory cytokines, including IL-2, IL-6, IL-8 and TNF-α (Baldwin, Ann. Rev. Immunol. 14: 649–683 (1996); Grilli et al., Int. Rev. Cytol. 143: 1–62 (1993)). […] The inhibition of IL-2 was evaluated in Jurkat cells after PMA/PHA activation (Mahon and O'Neill, J. Biol. Chem. 270: 28557–28564 (1995); Lindgren et al., Molec. Immunol. 38V 267–277 (2001)). The inhibition of TNF-α was evaluated in THP-1 cells after LPS activation (Aikawa et al., Inflamm. Res. 51: 188–194 (2002)). […] After 24 hours, the cell free supernatant fractions were collected and subjected to EIA for the quantification of total IL-2 production.
The assay measured the ability of the compounds to inhibit TNF-α production in LPS stimulated THP-1 cells (Aikawa et al., Inflamm. Res. 51V 188–194 (2002)).
THP-1 cells are grown in RPMI-1640 Media (Gibco-BRL, Rockville, Md.) supplemented with 5% fetal bovine serum, penicillin (614 ηg/mL), streptomycin (10 μg/mL) and HEPES buffer, pH 7.2 at 37° C., 5% CO2. To each well of a flat bottomed 96 well culture plate 0.2 mL 1×10^6 THP-1 cells/mL were added. Each sample was then treated in duplicate with the compounds in DMSO at either 10 μM, 1 μM, 0.1 μM or 10 ηM and allowed to incubate for thirty minutes at 37° C., 5% CO2. Cell free supernatant fractions were collected from stimulated cultures incubated for 3 hr at 37° C., 5% CO2. Cultures were stimulated with LPS (Sigma-Aldrich, St. Louis, Mo.) at 1 μg/mL. The concentration of TNF-α in each sample was then measured using a competitive enzyme immunoassay (Neogen Corporation, Lansing, Mich.) according to the manufacturer's protocol. To make a standard curve, known TNF-α concentrations were plotted and fitted to a 4 parameter logistic curve. Unknown concentrations were then extrapolated from the standard curve.

[9] = test system: CDK1; assay: Inhibition of CDK1 (method of Meijer et al.); assay type: biochemical
Text: The inhibitory activity of compound 3 was less pronounced.

[10] = test system: IL-2 production; assay: Inhibition of IL-2 production measured by competitive EIA in PMA/PHA-activated Jurkat T cells; assay type: cell-based, human; details: for pIC50: PMA/PHA-activated Jurkat T cells, EIA, means of two experiments, standard deviation in parentheses
Description: as §2
To each well of a flat bottomed 96 well culture plate 0.2 mL 1×10^6 Jurkat E6-1 cells/mL were added. Each sample was then treated in duplicate with the compounds in DMSO at either 10 μM, 1 μM, 0.1 μM or 10 ηM and allowed to incubate for thirty minutes at 37° C., 5% CO2. Cell free supernatant fractions were collected from stimulated cultures incubated for 24 hr at 37° C., 5% CO2. Cultures were stimulated with phytohemagglutinin (PHA, Sigma-Aldrich, St. Louis, Mo.) at 1 μg/mL; and phorbol myristate acetate (PMA, Sigma-Aldrich, St. Louis, Mo.) at 50 ng/mL. The concentration of IL-2 in each sample was then measured using a competitive enzyme immunoassay (Neogen Corporation, Lansing, Mich.) according to the manufacturer's protocol. Known IL-2 concentrations were plotted and fit a 4 parameter logistic curve. Unknown concentrations were then extrapolated from the standard curve.

[11] = target: T7, CK2 (h) (Homo sapiens, UniProt P68400); assay: Upstate Kinase Profiler in vitro kinase assay, CK2; assay type: biochemical; details: 10 μM ATP
T7 construct: purchased Upstate, UK (Kinase Profiler service)
Description: as §1

[12] = target: GSK-3β (Homo sapiens, UniProt P49841); assay: Inhibition of GSK-3β (method of Meijer et al.); assay type: biochemical
[13] = test system: NF-κB-DNA binding; assay: EMSA for NF-κB-DNA binding in nuclear extracts of PMA/PHA-activated Jurkat cells; assay type: cell-based, human; details: for Inhibition of DNA-binding (relative to activated control) / Count per mm^2 NF-κB bands: EMSA; for Inhibition of DNA-binding (relative to activated control): PMA-activated Jurkat cells; for Count per mm^2 NF-κB bands: activated control 105.55
Description: Human Jurkat leukemia T-cells (clone E6-1; ATCC No. […] The Jurkat cells (1×10^6 cells/mL) are subsequently treated with various concentrations of the compounds in DMSO for 30 min. at 37° C. and 5% CO2 followed by PMA (50 ng/mL) and PHA ([…]) stimulation for an additional 30 minutes. The cells were harvested by centrifugation, washed in ice cold PBS and the nuclear extracts were prepared as previously described (Dignam et al., Nucl. Acids Res. 11: 1475-1489 (1983)). The protein concentration of the extracts was determined according to the Method of Bradford (1976) with BioRad reagents. Nuclear extracts were incubated for 20 minutes at room temperature with a double stranded Cy3 labeled NF-κB consensus oligonucleotide, [NT] ID NO:1). The binding mixture (25 μL) contained 10 mM HEPES-NaOH pH 7.9, 4 mM Tris-HCL, pH 7.9, 6.0 mM KCl, 1 mM EDTA, 1 mM DTT, 10% glycerol, 0.3 mg/mL bovine serum albumin, and 1 μg of poly (dI:dC). The binding mixtures (10 μg of nuclear extract protein) were incubated for 20 minutes at room temperature with 0.16 pmol of Cy3 labeled oligonucleotide. The mixture was loaded on a 4% polyacrylamide gel prepared in 1× TRIS borate/EDTA buffer and was electrophoresed at 200 V for 20 minutes. After electrophoresis the gel was analyzed using a phosphorimager (BIORAD FX PLUS, Biorad Laboratories, Inc., Hercules, Calif.) for detection of NF-κB-DNA binding.

[14] = target: T5, CHK1; details: natural products, general statement; cited from earlier work

T3 sequence (O96017 whole entry): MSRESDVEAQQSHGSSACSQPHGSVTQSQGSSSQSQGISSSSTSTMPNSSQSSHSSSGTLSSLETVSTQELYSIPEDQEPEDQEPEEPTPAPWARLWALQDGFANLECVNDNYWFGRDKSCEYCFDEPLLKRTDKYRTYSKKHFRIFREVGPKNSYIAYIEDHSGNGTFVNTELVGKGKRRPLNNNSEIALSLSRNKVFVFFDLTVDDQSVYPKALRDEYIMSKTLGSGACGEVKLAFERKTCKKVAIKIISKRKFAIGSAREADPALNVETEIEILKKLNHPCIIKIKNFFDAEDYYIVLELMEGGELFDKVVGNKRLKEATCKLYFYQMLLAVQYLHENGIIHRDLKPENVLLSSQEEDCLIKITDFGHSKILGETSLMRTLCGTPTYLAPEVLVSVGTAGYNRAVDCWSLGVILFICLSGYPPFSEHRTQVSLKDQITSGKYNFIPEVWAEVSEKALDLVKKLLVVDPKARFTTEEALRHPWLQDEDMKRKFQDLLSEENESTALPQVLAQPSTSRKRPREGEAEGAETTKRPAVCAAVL
GSK-3β, sequence (P49841 whole entry, species assumed): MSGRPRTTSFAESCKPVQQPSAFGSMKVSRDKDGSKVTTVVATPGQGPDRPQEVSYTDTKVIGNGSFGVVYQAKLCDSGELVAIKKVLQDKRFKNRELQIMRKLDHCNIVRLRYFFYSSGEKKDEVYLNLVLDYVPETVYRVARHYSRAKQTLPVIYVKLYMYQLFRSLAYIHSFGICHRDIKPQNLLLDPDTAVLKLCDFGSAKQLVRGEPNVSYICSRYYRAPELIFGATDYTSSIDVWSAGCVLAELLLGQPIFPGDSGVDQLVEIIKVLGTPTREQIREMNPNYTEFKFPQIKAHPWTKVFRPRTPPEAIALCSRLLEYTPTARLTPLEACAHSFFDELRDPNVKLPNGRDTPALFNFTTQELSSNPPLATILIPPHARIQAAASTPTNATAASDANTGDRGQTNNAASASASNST
T6 sequence (P48730 whole entry): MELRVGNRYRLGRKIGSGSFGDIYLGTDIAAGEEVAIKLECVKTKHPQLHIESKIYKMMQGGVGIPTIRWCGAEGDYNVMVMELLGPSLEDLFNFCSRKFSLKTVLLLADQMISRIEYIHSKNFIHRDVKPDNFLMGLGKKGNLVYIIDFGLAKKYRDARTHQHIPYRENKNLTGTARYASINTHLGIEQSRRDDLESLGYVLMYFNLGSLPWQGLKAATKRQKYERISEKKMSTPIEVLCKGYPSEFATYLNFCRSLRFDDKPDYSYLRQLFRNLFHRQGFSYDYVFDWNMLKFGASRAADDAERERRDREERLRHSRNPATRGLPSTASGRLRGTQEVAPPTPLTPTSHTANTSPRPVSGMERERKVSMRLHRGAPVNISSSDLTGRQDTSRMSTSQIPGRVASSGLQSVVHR
T2 sequence (P05771 1-673 isoform P05771-2): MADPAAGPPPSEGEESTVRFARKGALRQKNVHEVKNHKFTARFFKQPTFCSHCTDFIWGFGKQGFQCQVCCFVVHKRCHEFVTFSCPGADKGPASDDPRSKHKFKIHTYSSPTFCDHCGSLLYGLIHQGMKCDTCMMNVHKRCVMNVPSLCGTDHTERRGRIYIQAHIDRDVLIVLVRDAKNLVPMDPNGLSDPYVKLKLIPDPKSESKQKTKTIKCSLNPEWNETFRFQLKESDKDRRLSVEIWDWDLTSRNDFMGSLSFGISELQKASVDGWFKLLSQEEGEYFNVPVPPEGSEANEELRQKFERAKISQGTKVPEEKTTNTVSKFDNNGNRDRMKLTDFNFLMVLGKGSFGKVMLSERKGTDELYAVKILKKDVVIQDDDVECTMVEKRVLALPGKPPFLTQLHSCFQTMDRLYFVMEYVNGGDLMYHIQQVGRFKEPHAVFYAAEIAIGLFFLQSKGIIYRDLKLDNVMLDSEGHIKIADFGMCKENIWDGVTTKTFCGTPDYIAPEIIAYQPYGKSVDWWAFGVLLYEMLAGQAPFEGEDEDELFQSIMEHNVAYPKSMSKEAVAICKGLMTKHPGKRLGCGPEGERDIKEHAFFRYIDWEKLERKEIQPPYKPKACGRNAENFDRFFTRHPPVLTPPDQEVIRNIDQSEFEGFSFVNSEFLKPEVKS
T7 sequence (P68400 whole entry): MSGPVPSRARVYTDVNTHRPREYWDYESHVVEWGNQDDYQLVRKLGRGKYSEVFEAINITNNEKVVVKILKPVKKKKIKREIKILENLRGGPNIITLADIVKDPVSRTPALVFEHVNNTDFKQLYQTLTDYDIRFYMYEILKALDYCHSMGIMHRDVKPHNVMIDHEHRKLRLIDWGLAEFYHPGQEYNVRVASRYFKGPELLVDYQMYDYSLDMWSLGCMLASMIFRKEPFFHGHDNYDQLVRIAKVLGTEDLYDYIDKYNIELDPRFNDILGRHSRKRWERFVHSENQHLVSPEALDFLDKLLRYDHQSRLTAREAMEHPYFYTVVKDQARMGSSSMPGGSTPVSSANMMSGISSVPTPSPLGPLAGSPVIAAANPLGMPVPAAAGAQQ
T7 sequence (P67870 whole entry partner): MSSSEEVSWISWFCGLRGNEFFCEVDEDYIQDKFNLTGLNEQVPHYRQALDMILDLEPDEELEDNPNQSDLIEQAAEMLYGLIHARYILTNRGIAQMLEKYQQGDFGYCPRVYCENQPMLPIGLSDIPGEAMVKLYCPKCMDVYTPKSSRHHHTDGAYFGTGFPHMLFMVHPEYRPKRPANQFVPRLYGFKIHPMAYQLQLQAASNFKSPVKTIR
T4 sequence (Q02750 whole entry): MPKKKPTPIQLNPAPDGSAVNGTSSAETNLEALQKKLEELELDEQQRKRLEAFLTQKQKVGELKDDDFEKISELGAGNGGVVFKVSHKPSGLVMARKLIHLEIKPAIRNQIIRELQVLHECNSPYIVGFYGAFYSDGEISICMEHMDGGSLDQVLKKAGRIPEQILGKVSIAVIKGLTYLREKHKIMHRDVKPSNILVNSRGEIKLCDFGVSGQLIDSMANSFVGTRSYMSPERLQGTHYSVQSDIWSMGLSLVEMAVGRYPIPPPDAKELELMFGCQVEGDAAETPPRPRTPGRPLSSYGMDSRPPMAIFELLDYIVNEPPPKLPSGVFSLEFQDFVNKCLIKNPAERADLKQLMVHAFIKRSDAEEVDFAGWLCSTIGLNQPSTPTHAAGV

SMILES | GI50 [6] [nM] | pIC50 [8] | pIC50 ([8]; Homo sapiens, THP-1, 3 h) | pIC50 [9] | pIC50 ([10]; Homo sapiens, Jurkat, 24 h) | pIC50 ([10]; 24 hr) | pIC50 [12] | Inhibition of DNA-binding (relative to activated control) ([13]; 1.0 μM) [%] | Count per mm^2 NF-κB bands ([13]; 1.0 μM) [Count per mm^2] | Inhibition of DNA-binding (relative to activated control) ([13]; 5.0 μM) [%] | Count per mm^2 NF-κB bands ([13]; 5.0 μM) [Count per mm^2] | pIC50 ([8]; Homo sapiens) | pIC50 ([10]; Homo sapiens, 24 hr) | further results
NC1=N/C(=C2/CCNC(=O)c3[nH]c4ccccc4c32)C(=O)N1 [Compound 2, 5-(2-amino-5-oxo-1,5-dihydro-imidazol-4-ylidene)-3,4,5,10-tetrahydro-2H-azepino[3,4-b]indol-1-one] | 1730 | 5.09 | 5.09 | 6.40 | 5.46 | 5.45 | 6.82 |  |  |  |  |  |  | pIC50 [1]: 5.60; pIC50 [2]: 5.47; pIC50 [3]: 8.10; pIC50 [4]: 7.05; pIC50 [5]: 6.63; pIC50 [7]: 5.87; pIC50 [11]: < 5.00
Cn1c2c(c3ccccc31)C(=C1N=C(N)NC1=O)CCNC2=O [Compound 3, 5-(2-amino-5-oxo-1,5-dihydro-imidazol-4-ylidene)-10-methyl-3,4,5,10-tetrahydro-2H-azepino[3,4-b]indol-1-one] | 14300 |  |  | < 5.00 |  |  | < 5.00 | 0 | 118.82 | 0 | 121.76 | < 5.00 | < 5.00 | Inhibition of NF-κB-DNA binding (in words) ([13]; measured up to concentrations of 5 μM): did not appear to substantially inhibit DNA binding; melting point: > 260 °C; Inhibition of TNF-α production (in words) ([8]; tested up to 10 μM): did not have any significant activity; Inhibition of IL-2 production (in words) ([10]; Jurkat cells, measured up to 10 μM): no significant inhibition of IL-2 production
NC1=NC(=O)/C(=C2\CCNC(=O)c3[nH]c(Br)cc32)N1 [Hymenialdisine 1, hymenialdisine, reference compound] | 1610 | 5.87 | 5.85 |  | 5.62 | 5.62 |  |  | 102.14 |  | 57.06 |  |  | 
S=C(S)N1CCCC1 [PDTC, pyrrolidinedithiocarbamate, reference compound] |  |  |  |  |  |  |  | 30 | 73.48 | 51 | 51.68 | 5.21 | 5.29 | 
NC1=N/C(=C2/CCNC(=O)c3[nH]ccc32)C(=O)N1 [debromohymenialdisine] |  |  |  |  |  |  |  |  |  |  |  |  |  | Inhibition of checkpoint kinase CHK1 (in words) [14]: low micromolar concentrations
